Laboratory results taken from patent US10406246B2, “Double-labeled probe for molecular imaging and use thereof” (DEUTSCHES KREBSFORSCHUNGSZENTRUM, priority 2013, dated 2019).

What was measured:
[1] = system: PSMA positive LNCaP tumors; assay: organ distribution in LNCaP tumor bearing xenografts; type: in vivo, BALB/c nu/nu mice; settings: 68Ga-labeled, 1 h post injection; for Organ distribution, Blood, Mean / Organ distribution, Brain, Mean / Organ distribution, Heart, Mean / Organ distribution, Intestine, Mean / Organ distribution, Kidney, Mean / Organ distribution, Liver, Mean / Organ distribution, Lung, Mean / Organ distribution, Muscle, Mean / Organ distribution, Spleen, Mean / Organ distribution, Tumor (tumor uptake), Mean: 0.06 nmol, tail vein, n=3; for distribution profile in healthy organs: both compounds compared with each other; for Organ distribution, Tumor (tumor uptake), Mean: PSMA positive LNCaP tumors
Procedure: 7- to 8-week-old male BALB/c nu/nu mice (Charles River Laboratories) were subcutaneously inoculated into the right trunk with 5×10^6 cells of LNCaP (in 50% Matrigel; Becton Dickinson, Heidelberg, Germany). The tumors were allowed to grow until approximately 1 cm^3 in size. The radiolabeled compounds were injected into the tail vein (approx. 1 MBq per mouse; 0.06 nmol). At 1 h after injection the animals were sacrificed. Organs of interest were dissected, blotted dry, and weighed. The radioactivity was measured using a gamma counter and calculated as % ID/g.

LNCaP tumor [2] = assay: comparative PET imaging of 68Ga-labeled PSMA-HBED-CC conjugates; type: in vivo; settings: 1 hour post injection, LNCaP tumor-bearing nude mice
Procedure: The ^68Ga-labeled compounds PSMA-HBED-CC-FITC (the compound depicted above), PSMA-Ahx-HBED-CC-cyanine 5.5 (the compound depicted above, of which the mass was determined by mass spectrometry as being M(calculated)=1642.98; M(found)=1642.7) and PSMA-Ahx-HBED-CC (the corresponding compound without cyanine 5.5) and were injected into an LNCaP tumor-bearing nude mice. One hour post injection, […] was performed.

LNCaP cells = assay: specific cell uptake, cell surface binding and internalization; type: cell-based, human; settings: 68Ga-labeled
Procedure: To determine the specific cell uptake and internalization, 10^5 cells were seeded in poly-L-lysine coated 24-well cell culture plates 24 h before incubation. After washing, the cells were incubated with 25 nM of the radiolabeled compounds for 45 min at 37° C. and at 4° C., respectively. Specific cellular uptake was determined by competitive blocking with 2-(phosphonomethyl)pentanedioic acid (500 μM final concentration, PMPA, Axxora, Loerrach, Germany). Cellular uptake was terminated by washing 4 times with 1 mL of ice-cold PBS. Cells were subsequently incubated twice with 0.5 mL glycine-HCl in PBS (50 mM, pH=2.8) for 5 min to remove the surface-bound fraction. The cells were washed with 1 mL of ice-cold PBS and lysed using 0.3 N NaOH (0.5 mL). The surface-bound and the internalized fractions were measured in a gamma counter. The cell uptake was calculated as percent of the initially added radioactivity bound to 10^6 cells [% ID/10^6 cells].

PSMA = target: T1, PSMA (Homo sapiens, UniProt Q04609); assay: in vitro competitive cell binding assay on LNCaP cells against 68Ga-labeled [Glu-urea-Lys(Ahx)]2-HBED-CC; settings: 12 concentrations of analyte 0-5000 nM, mean of three experiments
T1 construct: host or cells: LNCaP cells
T1 sequence (Q04609 whole entry): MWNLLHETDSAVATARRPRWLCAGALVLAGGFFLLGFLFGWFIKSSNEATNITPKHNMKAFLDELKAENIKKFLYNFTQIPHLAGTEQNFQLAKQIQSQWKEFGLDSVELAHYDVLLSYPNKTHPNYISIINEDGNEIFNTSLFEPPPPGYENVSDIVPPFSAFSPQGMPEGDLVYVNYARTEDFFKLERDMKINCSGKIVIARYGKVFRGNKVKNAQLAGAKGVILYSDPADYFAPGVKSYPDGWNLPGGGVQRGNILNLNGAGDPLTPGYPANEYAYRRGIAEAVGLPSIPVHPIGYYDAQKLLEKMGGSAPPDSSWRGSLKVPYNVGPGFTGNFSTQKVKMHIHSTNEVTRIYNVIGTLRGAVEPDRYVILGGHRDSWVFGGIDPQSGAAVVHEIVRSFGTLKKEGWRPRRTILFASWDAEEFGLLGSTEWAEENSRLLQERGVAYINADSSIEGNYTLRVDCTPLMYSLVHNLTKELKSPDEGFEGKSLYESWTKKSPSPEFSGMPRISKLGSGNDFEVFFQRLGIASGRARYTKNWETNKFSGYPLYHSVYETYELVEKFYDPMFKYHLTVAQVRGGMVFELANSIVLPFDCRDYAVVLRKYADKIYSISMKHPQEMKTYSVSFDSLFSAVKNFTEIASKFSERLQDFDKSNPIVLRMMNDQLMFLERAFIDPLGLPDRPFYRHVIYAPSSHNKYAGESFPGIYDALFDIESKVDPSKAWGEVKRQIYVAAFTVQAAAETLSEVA
Procedure: The competitive cell binding assay and internalization experiments were performed as described previously (Eder et al. 2012). Briefly, the respective cells (10^5 per well) were incubated with the […] (^68Ga-labeled [Glu-urea-Lys(Ahx)]2-HBED-CC (Schafer et al. 2012)) in the presence of 12 different concentrations of analyte (0-5000 nM, 100 μL/well). After incubation, washing was carried out using a multiscreen vacuum manifold (Millipore, Billerica, Mass.). Cell-bound radioactivity was measured using a gamma counter (Packard Cobra II, GMI, Minnesota, USA). The 50% inhibitory concentration (IC50) was calculated by fitting the data using a nonlinear regression algorithm (GraphPad Software). Experiments were performed three times.
The competitive cell binding assay and internalization experiments were performed as described previously (Eder et al., 2012). Briefly, the respective cells (10^5 per well) were incubated with the radioligand (^68Ga-labeled [Glu-urea-Lys(Ahx)]2-HBED-CC (Schäfer et al., 2012)) in the presence of 12 different concentrations of analyte (0-5000 nM, 100 μL/well). After incubation, washing was carried out using a multiscreen vacuum manifold (Millipore, Billerica, Mass.). Cell-bound radioactivity was measured using a gamma counter (Packard Cobra II, GMI, Minnesota, USA). […]

LNCaP tumor [3] = assay: comparative organ distribution versus Banerjee reference compounds; type: in vivo; settings: 1 hour post injection, LNCaP tumor-bearing nude mice
Procedure: PSMA-Ahx-HBED-CC-FITC (as shown above) was compared with a reference compound published by Banerjee et al. (Banerjee et al., 2011, Angew Chem Int Ed Engl. 50(39):9167-9170, page 6, scheme 1, final product) and the corresponding compound without the fluorescent dye IRDye800CW bearing a free amino group of the lysyl moiety the dye IRDye800CW can be bound to. These compounds were injected into LNCaP tumor-bearing nude mice.

Which “Organ distribution, Blood, Mean” value [1] does the source give for `O=C(O)CCC(NC(=O)NC(CCCCNC(=O)CCc1ccc(O)c(CN(CCN(CC(=O)O)Cc2cc(CCC(=O)NCCOCCOCCNC(=S)Nc3ccc4c(c3)C(=O)OC43c4ccc(O)cc4Oc4cc(O)ccc43)ccc2O)CC(=O)O)c1)C(=O)O)C(=O)O` (centres unmarked) [Glu-urea-Lys-HBED-CC-Fluorescein] here?
Its value is 1.34 % ID/g.

What about the “Organ distribution, Brain, Mean” value [1] of the same compound?
Its value is 0.31 % ID/g.

What about the “Organ distribution, Heart, Mean” value [1] of the same compound?
Its value is 2.22 % ID/g.

And the “Organ distribution, Intestine, Mean” value [1]?
Its value is 0.81 % ID/g.

What about the “Organ distribution, Kidney, Mean” value [1] of the same compound?
Its value is 138.18 % ID/g.

And the “Organ distribution, Liver, Mean” value [1]?
Its value is 1.71 % ID/g.

And the “Organ distribution, Lung, Mean” value [1]?
Its value is 3.09 % ID/g.

What about the “Organ distribution, Muscle, Mean” value [1] of the same compound?
Its value is 1.84 % ID/g.

What about the “Organ distribution, Spleen, Mean” value [1] of the same compound?
The value was 45.24 % ID/g.

What about the “distribution profile in healthy organs” value [1] of the same compound?
The value was “comparable”.

And the “Organ distribution, Tumor (tumor uptake), Mean” value (from here on “Organ distribution, Tumor”) [1]?
The value was 10.86±0.94 % ID/g.

And the “Organ distribution, Tumor” value ([1]; listed as Glu-urea-Lys-HBED-CC-dye)?
Its value is 10.86 % ID/g.

What about the “distribution of radioactivity and tumor uptake (PET imaging)” value (from here on “distribution … (PET imaging)”) (LNCaP tumor [2]) of the same compound?
Its value is “comparable distribution of radioactivity and tumor uptake”.

What about the “internalization by LNCaP cells” value (LNCaP cells; 25 nM, 45 min, competitive blocking with 500 μM 2-PMPA (P<0.001)) of the same compound?
Its value is “specifically internalized”.

And the “cell uptake and internalization profile versus Glu-urea-Lys-HBED-CC” value (LNCaP cells; LNCaP cells)?
The value was “not considerably changed”.

What about the IC50 (PSMA) of the same compound?
The IC50 was 11.1 ± 1.16 nM.

For `O=C(O)CCc1ccc(O)c(CN(CCN(CC(=O)O)Cc2cc(CCC(=O)NCCCCCC(=O)NCCCC[C@H](NC(=O)N[C@@H](CCC(=O)O)C(=O)O)C(=O)O)ccc2O)CC(=O)O)c1` [Glu-urea-Lys(Ahx)-HBED-CC, reference compound], which “Organ distribution, Blood, Mean” value [1] is on record?
The value was 0.53 % ID/g.

What about the “Organ distribution, Brain, Mean” value [1] of the same compound?
Its value is 0.40 % ID/g.

What about the “Organ distribution, Heart, Mean” value [1] of the same compound?
The value was 0.83 % ID/g.

And the “Organ distribution, Intestine, Mean” value [1]?
The value was 1.14 % ID/g.

What about the “Organ distribution, Kidney, Mean” value [1] of the same compound?
The value was 139.44 % ID/g.

And the “Organ distribution, Liver, Mean” value [1]?
Its value is 1.43 % ID/g.

And the “Organ distribution, Lung, Mean” value [1]?
The value was 2.36 % ID/g.

And the “Organ distribution, Muscle, Mean” value [1]?
The value was 1.00 % ID/g.

What about the “Organ distribution, Spleen, Mean” value [1] of the same compound?
The value was 17.88 % ID/g.

And the “distribution profile in healthy organs” value [1]?
Its value is “comparable”.

What about the “Organ distribution, Tumor” value [1] of the same compound?
The value was 4.89±1.34 % ID/g.

And the “Organ distribution, Tumor” value ([1]; listed as Glu-urea-Lys-HBED-CC)?
The value was 4.89 % ID/g.

And the “distribution … (PET imaging)” value (LNCaP tumor [2])?
Its value is “comparable distribution of radioactivity and tumor uptake”.

What about the IC50 (PSMA) of the same compound?
The IC50 was 9.82 ± 1.26 nM.

Which “tumor uptake versus Banerjee reference compounds” value (LNCaP tumor [3]) does the source give for `O=C(O)CCC(NC(=O)NC(CCCCNC(=O)CCCCCNC(=O)CCc1ccc(O)c(CN(CCN(CC(=O)O)Cc2cc(CCC(=O)NCCOCCOCCNC(=S)Nc3ccc4c(c3)C(=O)OC43c4ccc(O)cc4OC4C=C(O)C=CC43)ccc2O)CC(=O)O)c1)C(=O)O)C(=O)O` (centres unmarked) [PSMA-Ahx-HBED-CC-FITC] here?
The value was “significantly improved”.

`CN1/C(=C/C=C/C=C/C2=[N+](CCCCCC(=O)NCCOCCOCCNC(=O)CCc3ccc(O)c(CN(CCN(CC(=O)O)Cc4cc(CCC(=O)NCCCCCC(=O)NCCCCC(NC(=O)NC(CCC(=O)O)C(=O)O)C(=O)O)ccc4O)CC(=O)O)c3)c3ccc4ccccc4c3C2(C)C)C(C)(C)c2c1ccc1ccccc21` (centres unmarked) [PSMA-Ahx-HBED-CC-cyanine 5.5] was tested. Which “distribution … (PET imaging)” value (LNCaP tumor [2]) did it give?
Its value is “comparable distribution of radioactivity and tumor uptake”.
